We go through three compounds from ChEMBL document CHEMBL1126374, “Synthesis of -(S)-acylamino-N-(hydroxydioxocyclobutenyl)--lactams as potential antibiotics” (Bioorg Med Chem Lett, 1992).

Data set [1] can be described thus: Half life in pH 7 buffer solution was determined. The class given is ADME.
A further data set has as its system Escherichia coli. As to the kind of experiment: Tested for antibacterial activity against Escherichia coli; IA - No useful antibacterial activity. It is filed as functional, organism-based.
The subject of another data set is Staphylococcus aureus. As to the kind of experiment: Tested for antibacterial activity against Staphylococcus aureus; IA - No useful antibacterial activity. It is filed as functional, organism-based.
A further data set has as its system Streptococcus pneumoniae. As to the kind of experiment: Tested for antibacterial activity against Streptococcus pneumoniae; IA - No useful antibacterial activity. The class given is functional, organism-based.

SMILES strings stand for the structures. Active and inactive are the calls of the source. The rule behind the calls is not given here.

Turning to `C[C@H]1[C@H](NC(=O)COc2ccccc2)C(=O)N1c1c([O-])c(=O)c1=O.[K+]`, in data set [1], the half-life – broadly, the time in which the quantity being followed falls by half – is 168 h. The outcome in the data set with Escherichia coli, in the data set with Staphylococcus aureus and in the data set on Streptococcus pneumoniae was inactive.
`O=C(COc1ccccc1)N[C@H]1CN(c2c([O-])c(=O)c2=O)C1=O.[K+]` showed a half-life in data set [1] of 72 h. Moreover, the result in the data set on Escherichia coli, with Staphylococcus aureus and with Streptococcus pneumoniae was inactive.
For `CO/N=C(/C(=O)N[C@H]1CN(c2c(O)c(=O)c2=O)C1=O)c1csc(N)n1`, the result in the data set on Escherichia coli, in the data set with Staphylococcus aureus and in the data set with Streptococcus pneumoniae was inactive.
